Where two headings read alike, the source gives them in different places.
Tests used:
[1] = system: HT-29 colon adenocarcinoma; assay: MTT cytotoxicity assay, HT-29; conditions: Homo sapiens, HT-29, […]
[2] = system: MLM melanoma; assay: MTT cytotoxicity assay, MLM; conditions: […]
[3] = system: A-549 lung carcinoma; assay: MTT cytotoxicity assay, A-549; conditions: Homo sapiens, A549, […]
[4] = system: MCF-7 breast carcinoma; assay: MTT cytotoxicity assay, MCF-7; conditions: Homo sapiens, MCF7, […]
[5] = system: SKMEL-5 melanoma; assay: MTT cytotoxicity assay, SKMEL-5; conditions: Homo sapiens, SK-MEL-5, […], read-out: Cytotoxicity ED50, SKMEL-5
[6] = system: tubulin; assay: Inhibition of tubulin polymerization (turbidimetry); assay type: biochemical, bovine
[7] = read-out: Cytotoxicity ED50, HT-29
[8] = read-out: Cytotoxicity ED50, MLM
[9] = read-out: Cytotoxicity ED50, A-549
[10] = read-out: Cytotoxicity ED50, MCF-7
[11] = second series (Tables V-VII, IX), read-out: Inhibition of Tubulin Polymerization IC50 (±S.D.)

| SMILES | IC50 [1, 7] | IC50 [2, 8] | IC50 [3, 9] | IC50 [4, 10] | IC50 [5] | IC50 [6, 11] | IC50 ([1]; read-out: Cytotoxicity ED50, HT-29, HT-29, MTT, six days) | IC50 ([2]; read-out: Cytotoxicity ED50, MLM, MLM, MTT, six days) | IC50 ([3]; read-out: Cytotoxicity ED50, A-549, A-549, MTT, six days) | IC50 ([4]; read-out: Cytotoxicity ED50, MCF-7, MCF-7, MTT, six days) | IC50 ([6]; Table X footnote b, different glutamate preparation, read-out: tubulin polymerization IC50, standard agents) |
| --- | --- | --- | --- | --- | --- | --- | --- | --- | --- | --- | --- |
| COc1ccc2c(c1)CN1CCc3c(cc(OC)c(OC)c3OC)C1C2 (stereo not drawn) [compound 48, 5,8,13,13a-Tetrahedro-2,3,4,10-tetramethoxy-6H-dibenzo-(a,g)quinolizine] | > 25 µM | > 25 µM | > 25 µM | > 25 µM | > 25 µM | > 40 µM | – | – | – | – | – |
| COc1ccc(Cc2c3cc(OC)c(OC)c(OC)c3cc[n+]2C)cc1 [compound 37, 1-(4'-Methoxybenzyl)-5,6,7-trimethoxyisoquinoline Methiodide] | 20.5 µM | > 25 µM | 19.5 µM | > 25 µM | 2.1 µM | > 40 µM | – | – | – | – | – |
| COc1ccc2ccc3cc(OC)c(OC)c(OC)c3c2c1 [32b, 2,3,4,6-Tetramethoxyphenanthrene] | 1.1 µM | > 25 µM | > 25 µM | > 25 µM | 12.5 µM | > 40 µM | – | – | – | – | – |
| COc1ccc(CNc2cc(OC)cc(OC)c2)cc1 [12e] | > 25 µM | > 25 µM | > 25 µM | > 25 µM | > 25 µM | – | – | – | – | – | – |
| COc1cc(/C=C/c2ccc(O[Si](C)(C)C(C)(C)C)cc2)cc(OC)c1OC [6m, (E)-1-[(4-t-Butyldimethylsilyloxy)phenyl]-2-(3,4,5-trimethoxyphenyl)ethene] | > 25 µM | > 25 µM | > 25 µM | > 25 µM | > 25 µM | – | – | – | – | – | – |
| COc1ccc(/C=C/c2ccccc2)cc1OC [6q, (E)-1-(3,4-Dimethoxyphenyl)-2-phenylethene] | > 25 µM | > 25 µM | > 25 µM | > 25 µM | > 25 µM | – | – | – | – | – | – |
| COc1ccc(CCc2ccccc2)c(OC)c1OC [8r] | > 25 µM | > 25 µM | > 25 µM | > 25 µM | > 25 µM | – | – | – | – | – | – |
| COc1cc(CNc2cc(OC)c(OC)c(OC)c2)cc(OC)c1OC [12f] | > 25 µM | > 25 µM | > 25 µM | > 25 µM | > 25 µM | – | – | – | – | – | – |
| COc1ccc(C(=O)Nc2cc(OC)c(OC)c(OC)c2)cc1OC [11b] | > 25 µM | > 25 µM | > 25 µM | > 25 µM | > 25 µM | – | – | – | – | – | – |
| COc1cc(CCc2cc(OC)c(OC)c(OC)c2)cc(OC)c1OC [8u] | > 25 µM | > 25 µM | > 25 µM | > 25 µM | > 25 µM | – | – | – | – | – | – |
| COc1ccc(/C=C/c2cc(OC)c(OC)c(OC)c2)c(Cl)c1 [6e] | – | – | – | – | > 25 µM | – | > 25 µM | > 25 µM | > 25 µM | > 25 µM | – |
| COc1cc(/C=C/c2ccc(O)cc2)cc(OC)c1OC [compound 6o, (E)-1-(4-Hydroxyphenyl)-2-(3,4,5-trimethoxyphenyl)ethene] | > 25 µM | 24.2 µM | > 25 µM | 18.6 µM | 11.6 µM | – | – | – | – | – | – |
| COc1ccc(/C=C\c2cc(OC)c(OC)c(OC)c2)cc1 [compound E, reference compound] | – | – | – | – | – | – | – | – | – | – | 1.2 ± 0.05 µM |
| COc1cccc2c1C(=O)c1c(O)c3c(c(O)c1C2=O)C[C@@](O)(C(=O)CO)C[C@@H]3O[C@H]1C[C@H](N)[C@H](O)[C@H](C)O1 [Adriamycin, reference compound] | 0.055 µM | 0.13 µM | 0.029 µM | 0.031 µM | 0.032 µM | – | – | – | – | – | – |
| COc1cc(/C=C/c2ccc(Cl)cc2)cc(OC)c1OC [6g] | > 25 µM | > 25 µM | > 25 µM | > 25 µM | > 25 µM | – | – | – | – | – | – |
| COc1cc(CCc2ccc(OC)c(OC)c2OC)cc(OC)c1OC [8t] | > 25 µM | > 25 µM | > 25 µM | > 25 µM | > 25 µM | – | – | – | – | – | – |
| COc1cccc(CCc2cc(OC)c(OC)c(OC)c2)c1 [8b] | 7.6 µM | > 25 µM | 11.7 µM | 12.4 µM | 9.2 µM | – | – | – | – | – | – |
